Measurements published in patent US9060961B2, “Molecules and methods for treatment and detection of cancer” (UNIVERSITY OF WASHINGTON, priority 2006, dated 2015).

Test system: T lymphocytes in peripheral blood mononuclear cells
Assay: IFN-gamma ELISPOT of human T cells with IGF1R peptides
Format: cell-based
Conditions: for Immunogenicity Cancer: responders / cancer patients tested; for Immunogenicity Volunteer: responders / volunteer donors tested
Experimental: A scoring system based on internet available epitope prediction algorithms was developed to predict the peptides derived from IGF1R that have optimal binding affinity and promiscuity against multiple MHC class II molecules. […] After stimulating human T cells with the peptides, IFN-gamma secretion was determined via ELISPOT analysis. Five of the most immunogenic peptides were selected for in vivo evaluation in neu-transgenic mice to assess the potential of clinical efficacy.

Row | Sequence | Immunogenicity Cancer | Immunogenicity Volunteer
1 | IRGWKLFYNYALVIF [p 106-120] | 3/10 | 2/5
2 | LIIALPVAVLLIVGG [p 936-950] | 4/10 | 1/5
3 | DYRSYRFPKLTVITE [p 69-83] | – | 1/5
4 | TQYAVYVKAVTLTMV [p 575-589] | 1/10 | 1/5
5 | LVIMLYVFHRKRNNS [p 951-965] | 3/10 | –
6 | VIEGYLHILLISKAE [p 54-68] | 2/10 | –
7 | SHALVSLSFLKNLRL [p 393-407] | 2/10 | 2/5
8 | YSFYVLDNQNLQQLW [p 418-432] | 1/10 | –
9 | ASNFVFARTMPAEGA [p 817-831] | 1/10 | –
10 | GVLVLRASFDERQPY [p 1332-1346] | 2/10 | –
11 | GMAYLNANKFVHRDL [p 1122-1136] | 1/10 | –
12 | WSFGVVLWEIATLAE [p 1196-1210] | 2/10 | 1/5
13 | DERQPYAHMNGGRKN [p 1341-1355] | 1/10 | –
14 | IDIRNDYQQLKRLEN [p 37-5] | 1/10 | –
15 | SKMIQMAGEIADGMA [p 1110-1124] | 1/10 | –
